Experimental data: patent publication US20240269295A1, “C-MET TARGETED APTAMER DRUG CONJUGATE AND METHOD FOR TREATING TUMOR” (Hangzhou Institute of Medicine, Chinese Academy of Sciences, priority 2023, published 2024)

Key:
[1] = test system: large triple-negative breast cancer PDX model tumors; assay: Experiment against large tumors in vivo (triple-negative breast cancer PDX); parameters: species or system mice; conditions: tumor 400-500 mm^3; tail vein, 20 mg/kg once every seven days, two times
Procedure: Six mice with a tumor size of 400-500 mm^3 in a triple-negative breast cancer PDX model were randomly divided into two groups. In the experiment, the two groups were injected with a clinical first-line chemotherapy drug Docetaxel, and a c-Met targeted aptamer drug conjugate c-Met-ApDC through the tail vein, respectively at a dosage of 20 mg/kg Docetaxel (administrated once every seven days, for two times in total) or 0.36 mg/kg equivalent of MMAE (administrated once every four days, for three times in total). The weights of the mice, the lengths of tumors (a), and the widths of tumors (b) were measured and recorded at each injection. The calculation formula of tumor volume (V) was: V=(a×b^2)/2. The tumor volume exceeding 1,500 mm^3 or the weight loss exceeding 15% was taken as an endpoint of the experiment. The mice were euthanized, and the experiment was terminated. […] On about seven days of administration, the tumor volume in the group administrated with the chemotherapeutic drug began to increase, while the tumor of the group administrated with the reagent of the present invention began to decrease.

[2] = test system: large triple-negative breast cancer PDX model tumors; assay: Experiment against large tumors in vivo after multiple times of administration; parameters: species or system mice; conditions: Docetaxel alone, 20 mg/kg once every seven days, two times
Procedure: Six mice with a tumor size of 400-500 mm^3 in a triple-negative breast cancer PDX model were randomly divided into two groups. In the experiment, the two groups were injected with a clinical first-line chemotherapy drug, Docetaxel and a c-Met targeted aptamer drug conjugate c-Met-ApDC through the tail vein, respectively, at a dosage of 20 mg/kg Docetaxel (administrated once every seven days, for two times in total) or 0.36 mg/kg equivalent of MMAE (administrated once every four days, for three times in total).
The weights of the mice, the lengths of tumors (a), and the widths of tumors (b) were measured and recorded at each injection. The calculation formula of tumor volume (V) was: V=(a×b^2)/2. The tumor volume exceeding 1,500 mm^3 or the weight loss exceeding 15% was taken as an endpoint of the experiment. The mice were euthanized, and the experiment was terminated. In the group administrated with Docetaxel, 0.36 mg/kg equivalent of MMAE was injected into the mice through the tail vein once every four days continuously for three times after the tumor volume exceeded 1,500 mm^3. […] It was almost less than 200 mm^3 after 44 days.

[3] = molecular target: T1, c-Met (hepatocyte growth factor receptor) (UniProt P08581 P08581:25-932); assay: SPR; concentrations 100-500 nM
T1 sequence (P08581 25-932, one chain of several): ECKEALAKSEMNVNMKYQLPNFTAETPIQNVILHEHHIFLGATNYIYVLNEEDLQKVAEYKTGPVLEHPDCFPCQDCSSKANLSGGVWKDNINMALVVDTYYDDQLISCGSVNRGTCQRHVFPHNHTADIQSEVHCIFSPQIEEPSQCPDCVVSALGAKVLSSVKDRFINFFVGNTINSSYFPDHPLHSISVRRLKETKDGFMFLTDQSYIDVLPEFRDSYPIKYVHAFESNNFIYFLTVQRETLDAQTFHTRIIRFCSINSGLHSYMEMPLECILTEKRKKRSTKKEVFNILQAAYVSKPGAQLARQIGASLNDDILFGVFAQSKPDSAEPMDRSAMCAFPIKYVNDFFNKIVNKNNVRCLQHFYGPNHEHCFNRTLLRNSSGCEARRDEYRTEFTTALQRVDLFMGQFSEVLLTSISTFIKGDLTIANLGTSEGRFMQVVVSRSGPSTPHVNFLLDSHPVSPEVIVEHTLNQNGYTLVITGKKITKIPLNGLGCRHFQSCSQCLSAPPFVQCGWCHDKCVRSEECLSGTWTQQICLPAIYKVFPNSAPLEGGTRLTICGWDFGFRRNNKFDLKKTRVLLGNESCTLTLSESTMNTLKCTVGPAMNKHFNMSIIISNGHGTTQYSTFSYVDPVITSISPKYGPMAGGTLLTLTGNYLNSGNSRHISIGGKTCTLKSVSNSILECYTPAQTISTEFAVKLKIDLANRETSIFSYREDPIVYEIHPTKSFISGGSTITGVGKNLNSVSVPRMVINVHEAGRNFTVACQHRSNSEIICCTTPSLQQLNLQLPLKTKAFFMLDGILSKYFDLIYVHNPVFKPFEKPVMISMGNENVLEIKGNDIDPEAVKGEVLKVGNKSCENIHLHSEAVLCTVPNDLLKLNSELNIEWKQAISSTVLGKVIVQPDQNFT
Procedure: (§1) The specific experimental process was as follows: the c-Met protein-bound aptamer CLN0004-52 (sequence SEQ: ID2: […]) reported in the literature was selected and modified with a mercapto group at the 3-terminal and then conjugated with vcMMAE to construct the c-Met targeted aptamer drug conjugate CLN0004-52-MMAE. The affinity of CLN0004-52-MMAE and SL1-MMAE with a c-Met protein was characterized by surface plasmon resonance spectroscopy. The binding forces of two c-Met ApDCs were determined at concentrations of 100, 200, 300, 400, and 500 nM. […] Strong affinity stated that it could bind with c-Met more strongly, enhancing the therapeutic effect.

[4] = molecular target: T1, c-Met (hepatocyte growth factor …); assay: SPR; concentrations 100-500 nM; unit μm [sic]
Procedure: as §1

CC(=O)O[C@@]12CO[C@@H]1C[C@H](O)[C@@]1(C)C(=O)[C@H](O)C3=C(C)[C@@H](OC(=O)[C@H](O)[C@@H](NC(=O)OC(C)(C)C)c4ccccc4)C[C@@](O)([C@@H](OC(=O)c4ccccc4)[C@H]21)C3(C)C [Docetaxel]
inhibitory effect on large tumors [1]: no apparent inhibitory effect
tumor volume increase [1]: 3 times the volume
tumor volume course [2]: gradually increased

ATCAGGCTGGATGGTAGCTCGGTCGGGGTGGGTGGGTTGGCAAGTCTGAT (ssDNA, 3'-thiol conjugated to maleimide vcMMAE) [SL1-MMAE (c-Met-ApDC)]
Kd [3]: 77.5 nM

B1: CLN0004-52-MMAE (ssDNA)
DNA: GAGTGCGTAATGGTACGATTTGGGAAGTGGCTTGGGGTGGGATTAGTTTTGG
modifications: 3'-thiol conjugated to maleimide vcMMAE
Kd [4]: 21.5 µM
